# From US11124481B2 (Exelixis, Inc., priority 2014, dated 2021)
# Tests used:
# [1] = dynamic PET imaging in tumor-free control mice; format: in vivo, athymic BALB/C mice
# Experimental: (§1) Rodent imaging experiments were performed on a dedicated small animal microPET® F120™ scanner (Siemens Preclinical Solutions, Knoxville, Tenn.). Both static and dynamic PET imaging studies were conducted on athymic BALB/C mice (Harlan) and stereotactically implanted U87 tumor cells. The mice were administered about 6.4-7.4 MBq (0.17-0.2 mCi) of [^18F]-Cabozantinib via the tail vein. The mice were anesthetized (2% isofluorane in O2 at a flow rate of 1 mL/min) during tracer injection and throughout the imaging period. After injection, each mouse was laid in the microPET scanner. A 10 minutes transmission scan was acquired using a ^57Co point source prior to either the 2 hour dynamic scan or the 45 min static scan starting at about 15 minutes after injection. Mice were visually monitored for breathing, and a heating pad was used to maintain body temperature throughout the entire procedure. PET data were reconstructed using an OSEM 2D algorithm into a 128×128×95 image matrix (resulting in final voxel dimensions of 0.79×0.79×0.8 mm). Dead time, decay correction, attenuation correction, and normalization were applied to all PET data. Data were analyzed by manually drawing standardized volumes of interest using the Siemens ASIPro VM software package version 6.6. […]
# [2] = radiometabolite analysis in mouse plasma (radio-TLC)
# U87 tumor cells = assay: dynamic PET imaging in mice with orthotopically implanted U87 tumor cells; format: in vivo, athymic BALB/C mice
# Experimental: as §1, with “PET data were reconstructed using an OSEM 2D algorithm into a 128×128×95 image matrix (resulting in final voxel dimensions of 0.79×0.79×0.8 mm). Dead time, decay correction, attenuation correction, and normalization were applied to all PET data.” left out
# FIG. 3 depicts Positron Emission Tomography (PET) images of mice injected with [^18F]-Cabozantinib. […] A tumor:brain ratio, which is the ratio of the amount of [^18F]-Cabozantinib in the tumor compared to the amount of [^18F]-Cabozantinib in the brain in non-tumor regions, of 2.6 to 2.8 was measured for U87 stereotactically implanted tumor cells. […]
# [3] = biodistribution in mice with subcutaneous U87 tumor cells (gamma counter); format: in vivo, athymic BALB/C mice
# Experimental: . After acute sedation with isofluorane (2%) animals were sacrificed by decapitation at 15 and 60 min following tracer injection. Blood samples were collected and portions of the liver, kidneys, heart, lungs, muscles, stomach, large intestine, small intestine, bladder, spleen, brain and femur were dissected and weighed. Radioactivity of each sample was measured using a gamma counter (1480 Wizard™ 3 Automatic Gamma Counter, PerkinElmer). Decay-corrected radioactivity concentrations were calculated as percentage of injected dose per gram tissue (% ID/g).
smiles,measurement,setting,value
"COc1cc2nccc(Oc3ccc(NC(=O)C4(C(=O)Nc5ccc([18F])cc5)CC4)cc3)c2cc1OC [[^18F]-Cabozantinib, cyclopropane-1,1-dicarboxylic acid [4-(6,7-dimethoxy-quinolin-4-yloxy)-phenyl]-amide(4-[^18F]-fluoro-phenyl)amide]","SUV mean, uptake in the brain","[1]; tumor-free control mice, summed PET images",0.19
same,crossing of the blood brain barrier,"[1]; tumor-free mice, PET",does not cross the blood brain barrier
same,radiometabolites seen in plasma,[2],Only one radiometabolite
same,tracer remaining intact in plasma,[2]; 15 and 60 minutes after injection,over 80%
same,"SUV mean, tumor uptake","U87 tumor cells; orthotopically implanted U87 mice, n=3",0.50
same,time of maximal tumor uptake post injection,U87 tumor cells; time activity curves over 2 hour period,60 min
same,tracer uptake blood,"[3]; 15 minutes post injection, n=6",1.8±0.2 % ID/g
same,tracer uptake brain,"[3]; 15 minutes post injection, n=6",0.9±0.2 % ID/g
same,tracer uptake femur,"[3]; 15 minutes post injection, n=6",2.9±1.0 % ID/g
same,tracer uptake heart,"[3]; 15 minutes post injection, n=6",12.9±3.2 % ID/g
same,tracer uptake kidneys,"[3]; 15 minutes post injection, n=6",14.2±3.0 % ID/g
same,tracer uptake large intestines,"[3]; 15 minutes post injection, n=6",4.7±2.1 % ID/g
same,tracer uptake liver,"[3]; 15 minutes post injection, n=6",14.4±3.1 % ID/g
same,tracer uptake lungs,"[3]; 15 minutes post injection, n=6",6.5±1.1 % ID/g
same,tracer uptake muscles,"[3]; 15 minutes post injection, n=6",4.4±1.1 % ID/g
same,tracer uptake small intestines,"[3]; 15 minutes post injection, n=6",7.0±2.4 % ID/g
same,tracer uptake spleen,"[3]; 15 minutes post injection, n=6",4.7±1.2 % ID/g
same,tracer uptake stomach,"[3]; 15 minutes post injection, n=6",5.2±1.7 % ID/g
same,tracer uptake bladder,"[3]; 60 minutes post injection, n=6",4.3±1.2 % ID/g
same,tracer uptake blood,"[3]; 60 minutes post injection, n=6",2.2±0.3 % ID/g
same,tracer uptake brain,"[3]; 60 minutes post injection, n=6",0.9±0.1 % ID/g
same,tracer uptake femur,"[3]; 60 minutes post injection, n=6",1.8±0.8 % ID/g
same,tracer uptake heart,"[3]; 60 minutes post injection, n=6",9.5±1.5 % ID/g
same,tracer uptake kidneys,"[3]; 60 minutes post injection, n=6",11.7±1.5 % ID/g
same,tracer uptake large intestines,"[3]; 60 minutes post injection, n=6",4.6±0.9 % ID/g
same,tracer uptake liver,"[3]; 60 minutes post injection, n=6",14.0±1.9 % ID/g
same,tracer uptake lungs,"[3]; 60 minutes post injection, n=6",4.9±0.8 % ID/g
same,tracer uptake muscles,"[3]; 60 minutes post injection, n=6",4.2±0.3 % ID/g
same,tracer uptake small intestines,"[3]; 60 minutes post injection, n=6",10.7±1.1 % ID/g
same,tracer uptake spleen,"[3]; 60 minutes post injection, n=6",3.6±0.6 % ID/g
same,tracer uptake stomach,"[3]; 60 minutes post injection, n=6",8.4±1.5 % ID/g
same,crossing of the blood brain barrier,"[3]; biodistribution, 15 and 60 minutes",did not appear to cross the blood brain barrier
